From patent US10800801B2, “Crystalline platinum-based compounds” (AKAMARA THERAPEUTICS, INC., priority 2016, dated 2020)

Assay: physchem
Type: physicochemical
Conditions: water, Approximate Solubility
Protocol: Despite this, the screen offered a list of suitable solvents/solvent mixtures and anti-solvents to be used for the crystallization experiments. Using information obtained from the initial investigation into the solubility of IO-125, a series of bench scale crystallization experiments were carried out in order to provide examples of solution-based crystallization method that yield crystalline IO-125. Within this investigation, a number of techniques were designed to find suitable crystallization conditions including: using controlled linear cooling of IO-125 in different solvents, anti-solvent additions, evaporations and seeding. […] A significant mass loss was then observed in thermogravimetric trace from approx. 270° C., and was coupled with a large endothermic event with onset of 288.4° C. and peak at 297.2° C. in the differential thermogram. Again, this is likely associated with the decomposition of IO-125.
Initially a series of solvents and mixture of solvents were screened to select suitable solvents for the crystallization procedure.

CC(C)CCC[C@@H](C)[C@H]1CCC2C3CC=C4C[C@@H](OCCN(CC(=O)[O-])CC(=O)[O][Pt+]5[NH][C@@H]6CCCC[C@H]6[NH]5)CC[C@]4(C)C3CC[C@@]21C (stereo partly shown) [Comp 25]
solubility: ≤ 10 mg/mL
